Here are results for ten compounds from ChEMBL document CHEMBL4385628, “New insights into the binding mode of pyridine-3-carboxamide inhibitors of E. coli DNA gyrase” (Bioorg Med Chem, 2019).

In brackets after ≈: the same amount, converted by molar mass. Activity calls are given as the source filed them. No cut-off for these calls is given here.

For data set [1], the target named is DNA topoisomerase 2-alpha (Homo sapiens) (UniProt P11388). Description: Inhibition of human topoisomerase-2alpha up to 100 uM.
DNA topoisomerase 2-alpha (Homo sapiens), sequence (P11388 whole entry): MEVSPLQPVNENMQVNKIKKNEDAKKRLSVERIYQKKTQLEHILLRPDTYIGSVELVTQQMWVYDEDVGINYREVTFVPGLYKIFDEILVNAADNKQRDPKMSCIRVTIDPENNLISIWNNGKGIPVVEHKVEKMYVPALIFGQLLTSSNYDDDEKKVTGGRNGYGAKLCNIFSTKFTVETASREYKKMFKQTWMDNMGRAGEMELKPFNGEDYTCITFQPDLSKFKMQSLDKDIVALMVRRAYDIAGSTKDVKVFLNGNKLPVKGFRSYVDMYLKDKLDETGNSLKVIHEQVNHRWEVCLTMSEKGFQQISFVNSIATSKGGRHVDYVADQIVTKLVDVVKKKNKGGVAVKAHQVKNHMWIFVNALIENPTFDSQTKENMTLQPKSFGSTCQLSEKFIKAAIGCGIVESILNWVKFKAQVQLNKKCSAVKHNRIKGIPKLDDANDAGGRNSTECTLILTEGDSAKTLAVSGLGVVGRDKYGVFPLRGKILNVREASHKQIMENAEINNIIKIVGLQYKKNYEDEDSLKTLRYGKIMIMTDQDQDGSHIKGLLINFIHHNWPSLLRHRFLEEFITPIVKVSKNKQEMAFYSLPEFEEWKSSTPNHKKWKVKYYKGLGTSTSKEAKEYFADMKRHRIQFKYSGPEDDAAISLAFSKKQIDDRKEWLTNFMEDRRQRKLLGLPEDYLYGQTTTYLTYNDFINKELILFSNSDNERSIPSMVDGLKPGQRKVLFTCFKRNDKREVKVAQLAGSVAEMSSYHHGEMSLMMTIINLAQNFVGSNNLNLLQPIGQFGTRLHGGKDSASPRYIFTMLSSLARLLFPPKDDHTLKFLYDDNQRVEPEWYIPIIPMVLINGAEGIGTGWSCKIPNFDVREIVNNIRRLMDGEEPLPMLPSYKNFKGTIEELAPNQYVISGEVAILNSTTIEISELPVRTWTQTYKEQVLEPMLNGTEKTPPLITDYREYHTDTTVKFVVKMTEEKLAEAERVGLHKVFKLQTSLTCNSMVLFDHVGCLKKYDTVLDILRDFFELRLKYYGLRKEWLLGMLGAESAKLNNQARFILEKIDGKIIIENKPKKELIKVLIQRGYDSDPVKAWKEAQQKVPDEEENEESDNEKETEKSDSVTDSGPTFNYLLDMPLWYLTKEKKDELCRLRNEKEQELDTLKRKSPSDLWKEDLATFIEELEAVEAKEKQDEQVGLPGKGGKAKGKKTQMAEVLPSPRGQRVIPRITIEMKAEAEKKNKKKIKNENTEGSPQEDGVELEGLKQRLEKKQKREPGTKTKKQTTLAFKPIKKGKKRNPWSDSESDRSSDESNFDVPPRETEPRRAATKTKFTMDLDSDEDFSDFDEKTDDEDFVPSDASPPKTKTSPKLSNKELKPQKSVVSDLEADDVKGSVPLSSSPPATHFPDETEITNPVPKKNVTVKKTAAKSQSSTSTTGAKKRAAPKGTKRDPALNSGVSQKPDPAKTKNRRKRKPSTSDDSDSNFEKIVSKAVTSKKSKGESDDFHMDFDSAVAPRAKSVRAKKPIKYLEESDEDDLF
The subject of a further data set is Staphylococcus aureus. Description: Antibacterial activity against Staphylococcus aureus ATCC 29213 assessed as reduction in microbial growth by CLSI based broth microdilution method. The data set is classed as functional.
A further data set relates to Escherichia coli. Description: Antibacterial activity against Escherichia coli ATCC 25922 assessed as reduction in microbial growth by CLSI based broth microdilution method. The format is functional.
The nature of data set [2]: Half life in human liver microsomes. The format is ADME, Microsome.
A short description of data set [3]: Apparent permeability across apical to basolateral side in human Caco2 cells. The data set is classed as ADME, cell-based. The settings on record: Caco-2.
Data set [4] is described as follows: Efflux ratio of apparent permeability across basolateral to apical over apical to basolateral side in human Caco2 cells. The conditions noted are these: Caco-2. The data set is classed as ADME, cell-based.
Data set [5] can be described thus: Protein binding in human plasma. The conditions noted are these: read-out: PPB (converted). The data set is classed as ADME, cell-free.
A short description of data set [6]: Aqueous solubility of compound. The data set is classed as physicochemical.
A further data set deals with DNA gyrase (Escherichia coli, UniProt P0AES4+P0AES6). Description: Inhibition of Escherichia coli DNA gyrase(A2B2 tetramer) preincubated for 5 mins followed by ATP addition and measured once per minute for 20 to 30 minutes by ATPase assay. The format is protein-complex assay.
Data set [7] can be described thus: Half life in mouse liver microsomes. The format is ADME, Microsome.

As for `CCNC(=O)Nc1cc(Nc2ccc(OC)cc2)c(C(=O)Nc2cccnc2)cn1`, the inhibition entry in data set [1] is “inactive”. Further, the minimum inhibitory concentration (MIC) was 4 µg/mL in the data set with Staphylococcus aureus and greater than 64 µg/mL in the data set on Escherichia coli. This compound also registered a half-life in data set [2] of 20 min. For the same compound, in data set [3], the Papp A→B was determined as 11.8 ×10⁻⁶ cm/s. For the same compound, in [4], the efflux ratio turned out to be 2.82. In addition, in [5], the fraction unbound is 0.028. The solubility in data set [6] stood at 2.4 µM (≈ 0.975 µg/mL). The same compound showed a half-maximal inhibitory concentration (IC50) at DNA gyrase of 19 nM.
For `CCNC(=O)Nc1cc(N2CCCC2)c(C(=O)Nc2cccnc2)cn1`, the minimal inhibitory concentration (MIC) with Staphylococcus aureus is 64 µg/mL; with Escherichia coli it was greater than 64 µg/mL. On DNA gyrase, this compound registered an IC50 of 120 nM.
Consider `CCNC(=O)Nc1cc(Nc2cccc(C)c2)c(C(=O)Nc2cccc(C)c2)cn1`, for which the half-life in data set [2] came out at 46 min; in data set [7] it was 58 min. Moreover, the apparent permeability from apical to basolateral (Papp A→B) in [3] is less than 2.67 ×10⁻⁶ cm/s. Besides, the fraction unbound in [5] was 0.001. Besides, the solubility in [6] is 4.26 µM (≈ 1.72 µg/mL).
Consider `CCNC(=O)Nc1cc(-n2cc(Br)cn2)c(C(=O)Nc2cccnc2)cn1`, for which the inhibition entry in data set [1] was “inactive”. For the same compound, the figures for the MIC in the data set with Staphylococcus aureus and with Escherichia coli were 16 µg/mL and greater than 64 µg/mL, respectively. For the same compound, half-maximal inhibition against DNA gyrase (IC50) required 37 nM.
For the compound `CCNC(=O)Nc1cc(-n2cncn2)c(C(=O)Nc2cccnc2)cn1`, the MIC with Staphylococcus aureus and in the data set on Escherichia coli was greater than 64 µg/mL throughout. Besides, the half-maximal inhibitory concentration (IC50) on DNA gyrase was found to be 82 nM.
`CCNC(=O)Nc1cc(-n2ccnn2)c(C(=O)Nc2cccnc2)cn1` gave a half-inhibitory concentration (IC50) on DNA gyrase of 200 nM.
Turning to `CCNC(=O)Nc1cc(N2CCC(N)C2)c(C(=O)Nc2cccnc2)cn1` (stereo not given), in data set [1], the inhibition result was “inactive”. Moreover, the MIC in the data set on Staphylococcus aureus and in the data set on Escherichia coli was greater than 64 µg/mL each time. The compound also showed a half-life in data set [2] of 290 min. In [3], the apparent permeability from apical to basolateral (Papp A→B) turned out to be 4.02 ×10⁻⁶ cm/s. Moreover, the efflux ratio in data set [4] worked out at 2.78. Further, in data set [5], the fraction unbound was 0.498. In addition, the solubility in data set [6] amounted to 88.5 µM (≈ 32.7 µg/mL). On DNA gyrase, this compound had an IC50 of 89 nM.
For `CCNC(=O)Nc1cc(Nc2ccccc2O)c(C(=O)Nc2cccnc2)cn1`, the minimal inhibitory concentration (MIC) in the data set on Staphylococcus aureus and with Escherichia coli was greater than 64 µg/mL in each case. This compound also displayed a concentration for half-maximal inhibition (IC50) at DNA gyrase of 410 nM.
For the compound `CCNC(=O)Nc1cc(-n2cccn2)c(C(=O)Nc2cccnc2)cn1`, in data set [1], the inhibition result is “inactive”. In addition, the results for the MIC in the data set on Staphylococcus aureus and in the data set on Escherichia coli were 64 µg/mL and greater than 64 µg/mL, respectively. For the same compound, the half-life in data set [2] is 128 min; in [7] it was 24 min. Further, the apparent permeability from apical to basolateral (Papp A→B) in data set [3] was 1.23 ×10⁻⁶ cm/s. In addition, the efflux ratio in data set [4] amounted to 30.8. Also, the fraction unbound in data set [5] is 0.095. This compound displayed a solubility in data set [6] of 32.6 µM (≈ 11.5 µg/mL). This compound also came in with an IC50 at DNA gyrase of 86 nM.
Regarding `CCNC(=O)Nc1cc(-n2nccn2)c(C(=O)Nc2cccnc2)cn1`, the results for the minimal inhibitory concentration (MIC) with Staphylococcus aureus and in the data set on Escherichia coli were 64 µg/mL and greater than 64 µg/mL, respectively. This compound displayed a concentration for half-maximal inhibition (IC50) against DNA gyrase of 150 nM.
